Assay results reported in patent publication US8158810B2 (Gilead Sciences, Inc., priority 2006, dated 2012).

How the values were obtained:
Wistar-derived male rats = experiment: Nicotine self-administration; type: in vivo, rat; details: increasing doses (7.5, 10, 15 mg/kg i.p.) 30 minutes prior to session
Description: Wistar-derived male rats (250-300 g) were housed in groups of two and maintained in a temperature-controlled environment on a 12 hour: 12 hour light cycle (0600 h on-1800 h off), upon arrival in the laboratory. Animals were given free access to food and water during a one-week habituation period to the laboratory. […] Animals were handled daily for several days to desensitize them to handling stress before experimental testing. The sample sizes (n=8) provided reliable estimates of drug effects.
Mecamylamine was dissolved in 0.09% isotonic saline and administered at a volume of 1 ml/kg.
Food training and nicotine self-administration took place in 8 standard Coulbourn operant chambers. Each chamber was housed in a sound-attenuated box. Operant chambers were equipped with two levers, mounted 2 cm above the floor, and a cue light mounted 2 cm above the right lever on the back wall of the chamber. For food training, a food hopper was located 2-cm to the left/right of either lever, in the middle of the back wall. Intravenous infusions were delivered in a volume of 0.1 ml over a 1 second interval via an infusion pump (Razel, Conn.) housed outside of the sound attenuated chamber.
Initially, rats were restricted to 15 grams of food daily (approximately 85% of their free-feeding body weight). […]

Male Sprague-Dawley rats = experiment: Cocaine self administration and reinstatement model (cocaine induced relapse); type: in vivo, rat; details: for Lever presses (Avg ± Std. error): significantly different from Vehicle, p < 0.05
Description: Intravenous cocaine (0.35 mg/kg/inj) was used in an operant self administration and reinstatement model in rats. In this model, rats addicted to cocaine repeatedly pressed a lever to obtain an intravenous dose (iv) of cocaine. When cocaine was removed, rats stopped pressing the lever. However, rats resumed lever pressing for cocaine (reinstatement) if subjected to a small intraperitoneal (ip) dose (10 mg/kg) of cocaine that normally has no effect in naïve animals. This is a valid animal model of relapse in cocaine addicted humans, and tests the ability of compounds of Formula I to block cocaine craving and relapse.
Male Sprague-Dawley rats with jugular vein catheterization were used. Rats were presented with a choice of two levers in the test/training chamber. […] The following day the reinforcer was switched to FR1 lever pressing for cocaine (0.35 mg/kg/inj, delivered in 0.27 sec). […] Daily training sessions for each group lasted 2 hours, or until a subject earned 200 drug infusions, whichever came first. The subjects remained in drug self-administration training mode until acquisition criterion was met (average presses on the active lever varied by <10% over 3 consecutive training days). This typically takes 10-14 days.
For extinction and reinstatement experiments, rats were required to display stable responding (variability not higher than 15% in 2 consecutive sessions) on the FR1 schedule of reinforcement. […] When average responding across three consecutive extinction sessions fell to 15% of responding during maintenance, subjects were tested for reinstatement. In cocaine-experienced animals, reinstatement was primed with a non-contingent injection of cocaine (10 mg/kg ip) immediately before the reinstatement session. In order to increase statistical power and therefore decrease animal usage, a second extinction period was initiated 3-4 days after the first, which allowed for additional within-subjects comparisons. Experiments used a between-session-training and testing method in which animals were trained to self administer drug. Their behavior was then extinguished and then reinstatement was primed on different days.
Animals were trained to self administer cocaine (0.35 mg/kg/inj) until they reached stable responding. They were then trained in the same chambers but cocaine was no longer available.

`CS(=O)(=O)Nc1ccc(-c2coc3cc(OCc4cccc(C(=O)O)c4)ccc3c2=O)cc1` [Cmpd A, 3-[(3-{4-[(methylsulfonyl)amino]phenyl}-4-oxochromen-7-yloxy)methyl]-benzoic acid] was tested, and the “number of bar presses (number of infusions) for nicotine administration” value (Wistar-derived male rats) was “reduced the number of bar presses”, the “Lever presses (Avg ± Std. error)” value (Male Sprague-Dawley rats; 7.5 mg/kg prior to cocaine priming dose (10 mg/kg), N = 9) was 24.94 ± 7.92 and the “Lever presses (Avg ± Std. error)” value (Male Sprague-Dawley rats; 10 mg/kg prior to cocaine priming (10 mg/kg) dose, N = 6) was 19.83 ± 11.30. The “lever presses responding after priming injection of cocaine” value (Male Sprague-Dawley rats; 7.5 and 10 mg/kg prior to the priming injection of cocaine (10 mg/kg)) was “did not show an increase in their lever presses responding” and the relapse for cocaine (Male Sprague-Dawley rats; ip injections, rats) was “dose dependently blocked relapse for cocaine”.
